{
  "source": "patent US9603872B2",
  "about": "“Methods and compositions for mitochondrial replacement therapy” (The McLeon Hospital Corporation, priority 2007, dated 2017)",
  "key": {"control fibroblasts [1]": {"system": "control fibroblasts", "assay": "Mitochondrial morphology by MitoTracker 7510 after metabolic stress", "type": "cell-based, human", "method": "(§1) The fluorescent marker, MitoTracker-[…] Fibroblasts (n=6) and lymphocytes (n=6) from patients with BD and age-matched controls (Fibroblasts, n=6; lymphocytes, n=6)) were exposed to hydrocortisone to induce mitochondrial stress (REFS). Hydrocortisone (Sigma H0888, St. Louis, Mo., USA) was dissolved in 50% ethanol/50% culture medium to yield a 40 mM stock solution. Hydrocortisone was then diluted to appropriate experimental concentrations (10 nM, 1 uM, 100 uM) with above described growth media. Confluent (85-95%) fibroblasts and lymphocytes (1×10^5 ? 1×10^6) were treated for 24 hr with hydrocortisone (sub-acute stress). Cells treated with vehicle (25% ethanol) alone served as controls. Following hydrocortisone treatment, fibroblasts were examined for alterations in mitochondrial morphology, membrane potential, and ATP levels, as described above. All experiments were performed in triplicate. […] ATP levels were assayed as described above."}, "[2]": {"system": "fibroblasts from BD patients", "assay": "Mitochondrial morphology by MitoTracker 7510 after metabolic stress", "type": "cell-based, human", "method": "as §1"}, "[3]": {"system": "fibroblasts from BD subjects", "assay": "ATP levels by bioluminescence (luciferase) assay after metabolic stress", "type": "cell-based, human", "method": "(§2) Loss of red JC1 signal relative to monomeric green JC1 indicates collapse of mitochondrial membrane […] (Smiley et al., Proc. Natl. Acad. Sci. 88:3671-3675 (1991) and Cossarizza et al., Biochem. Biophys. Res. Comm. 197:40-45 (1993)).\n(§3) ATP production was measured in cultured fibroblast lines using the Roche ATP Bioluminescence assay kit CLSII following the manufacturer's protocol (Roche Diagnostics, Mannheim, Germany). Briefly, cells were plated at a concentration of 2.5×10^5 cellsper 60 mm dish were used for each experiment and experiments were conducted two days later. Cell lysis was achieved by boiling in lysis solution ([…], 4 mM EDTA, pH=7.75) followed by incubation for 2 min at 100° C. The cells then were centrifuges spun at 1000×g for 1 min. The supernatants were used for total cell ATP determination. Samples were run in triplicate on a 96-well plate MLX luminometer (Dynex Technologies, Chantilly, Va., USA). Integration was delayed for 1 sec after the addition of luciferase and luminescence was measured for 10 seconds at an emission maximum of […]. Following ATP luminescence measurements, data was normalized to protein concentration as determined by the method of Bradford (Bradford DC assay, BioRad, Temecula, Calif., USA) to yield nanograms of ATP per mg of protein. Assays were performed in triplicate.\n(§4) Fibroblasts (n=6) and lymphocytes (n=6) from patients with BD and age-matched controls (Fibroblasts, n=6; lymphocytes, n=6)) were exposed to hydrocortisone to induce mitochondrial stress (REFS). Hydrocortisone (Sigma H0888, St. Louis, Mo., USA) was dissolved in 50% ethanol/50% culture medium to yield a 40 mM stock solution. Hydrocortisone was then diluted to appropriate experimental concentrations (10 nM, 1 uM, 100 uM) with above described growth media. Confluent (85-95%) fibroblasts and lymphocytes (1×10^5 ? 1×10^6) were treated for 24 hr with hydrocortisone (sub-acute stress). Cells treated with vehicle (25% ethanol) alone served as controls. Following hydrocortisone treatment, fibroblasts were examined for alterations in mitochondrial morphology, membrane potential, and ATP levels, as described above. All experiments were performed in triplicate.\n(§5) We also studied an equal number of fibroblast lines from BD and age-matched controls which were exposed to 100 μM hydrogen peroxide for 24 hrs (REFS). ATP levels were assayed as described above. Light microscopic analysis of JC1 to determine changes in mitochondrial membrane potential also were performed as previously described."}, "BD fibroblasts": {"system": "BD fibroblasts", "assay": "Mitochondrial membrane potential by JC-1 staining after metabolic stress", "type": "cell-based, human", "description": "as §2\n(§6) The cationic fluorescent dye, JC-1 (5,5′,6,6′-tetrachloro-1,1′,3,3′-tetraethylbenzimidazolylcarbocyanine iodide) (Strategene, La Jolla, Calif. USA), was used to detect changes in mitochondrial membrane potential according to manufacturer's protocol. JC-1 reagent produces a red fluorescence (absorption/emission maxima=585/590 nm) after accumulation and aggregation in healthy, non-apoptotic cells with intact mitochondrial membrane potential and localizes to the cytoplasm as green with JC-1 monomers fluorescence (absorption/emission maxima=510/527 nm) in cells with compromised membrane potential. Briefly, cell lines were plated at a concentration of 2.5×10^4 on coverslips and were incubated with a 1:100 dilution of pre-warmed JC1 in growth media for 15 to 20 min at 37° C., 5% CO2. Cells were then rinsed once with assay buffer and mounted in PBS and analyzed immediately on a fluorescence microscopy. The coverslips were placed on standard microscopy slides and viewed immediately using a Zeiss Axiskop 2 epifluorescence microscope.\nas §4, §5"}, "control fibroblasts [4]": {"system": "control fibroblasts", "conditions": "H2O2 treated", "method": "as §2\nas §3, with “triplicate. […]” for “triplicate.”"}, "[5]": {"system": "Control fibroblasts and lymphocytes", "conditions": "2 mM, 3 and 5 days, light microscopy", "method": "Mood stabilizing drugs like lithium are commonly used as treatment for BD (Friedman et al., Biol. Psychiatr. 56:340-348 (2004) and Goodwin et al., JAMA 290:1467-1473 (2003)), and all but one of our subjects with BD was receiving lithium. […] Control fibroblasts and lymphocytes were treated with 2 mM lithium carbonate (LiCO3; approximately twice the average serum level of lithium in patients) for 3 and 5 days. Cells treated with a water vehicle only served as controls.\nThe fluorescent marker, MitoTracker-M7510 (Invitrogen, Carlsbad Calif.), was used to visualize mitochondria according to manufacturers instructions. Briefly, fibroblasts were plated at 2.5×10^4 and grown on coverslips, subsequently washed one time with pre-warmed growth media and incubated with M7510 at a final concentration of 250 nM in culture media at 37° C., 5% CO2 for 30 min. Cells were then washed once with culture media and fixed in 4% paraformaldehyde in 100 mM phosphate buffer pH 7.4 for 15 min. Following fixation, coverslips were rinsed two times in PBS and mounted in Gel Mount (Biomedia)."}, "[6]": {"system": "fibroblasts from healthy individuals", "assay": "Mitochondrial membrane potential by JC-1 staining after metabolic stress", "type": "cell-based, human", "conditions": "100 μM HC, 24 hr", "description": "as §2, §6, §4, §5"}, "[7]": {"conditions": "HC treatment, BD and control fibroblasts, data not shown"}},
  "note": "Values joined by “and” are separate entries in the source; they are usually repeats but may differ in a detail not shown here. Equal values may be shown once. “Also recorded” adds a separate entry of the source. Read-outs that look alike come from different tables or passages of the source.",
  "data": [
    {"compound": "OO", "note": "[H2O2, hydrogen peroxide]", "values": [
      {"measurement": "mitochondrial morphology (MitoTracker 7510) vs untreated cells", "setting": "control fibroblasts [1]; 100 μM H2O2, 24 hrs", "result": "a dispersed mitochondrial network with loss of elongated mitochondrial profiles, increased perinuclear clustering, and increased mitochondrial fragmentation; also recorded: dispersion of the mitochondrial network with loss of elongated mitochondrial profiles"},
      {"measurement": "mitochondrial morphology (MitoTracker 7510) vs untreated cells", "setting": "[2]; 100 μM H2O2, 24 hrs", "result": "almost complete loss of the mitochondrial network, mitochondrial clustering and dramatic mitochondrial fragmentation"},
      {"measurement": "decrease in ATP levels compared to untreated BD fibroblasts", "setting": "[3]; H2O2 treated, p<0.001", "result": 83, "unit": "%"},
      {"measurement": "decrease in ATP levels compared to control cells exposed to H2O2", "setting": "[3]; H2O2 treated, p<0.05", "result": 93, "unit": "%"},
      {"measurement": "ATP levels, mean", "setting": "[3]; H2O2 treated, method b169: normalized to nanograms of ATP per mg of protein", "result": "6.2×10^−5 and 6.2×10^−4"},
      {"measurement": "JC1 staining (mitochondrial membrane integrity)", "setting": "BD fibroblasts; 100 μM H2O2, 24 hrs", "result": "severe loss of mitochondrial membrane integrity"},
      {"measurement": "ATP compared to untreated control cells", "setting": "control fibroblasts [4]", "result": "no significant difference"},
      {"measurement": "ATP levels, mean", "setting": "control fibroblasts [4]; method b169: normalized to nanograms of ATP per mg of protein", "result": "9.9×10^−4"}
    ]},
    {"compound": "O=C([O-])[O-].[Li+].[Li+]", "note": "[LiCO3, lithium carbonate]", "values": [
      {"measurement": "mitochondrial shape and distribution vs vehicle treated cells", "setting": "[5]", "result": "no significant differences in mitochondrial shape and distribution"},
      {"measurement": "mitochondrial shape and distribution vs vehicle treated cells", "setting": "[5]; listed as lithium", "result": "could not be replicated"}
    ]},
    {"compound": "C[C@]12CCC(=O)C=C1CC[C@@H]1[C@@H]2[C@@H](O)C[C@@]2(C)[C@H]1CC[C@]2(O)C(=O)CO", "note": "[hydrocortisone]", "values": [
      {"measurement": "mitochondrial morphology (MitoTracker 7510) vs untreated cells", "setting": "control fibroblasts [1]; 100 μM HC, 24 hr", "result": "some loss in the reticular pattern of mitochondria; also recorded: a slight loss in the reticular pattern of the mitochondrial network and greater frequency of perinuclear clustering"},
      {"measurement": "mitochondrial morphology (MitoTracker 7510)", "setting": "[2]; 100 μM HC, 24 hr", "result": "perinuclear clustering like that seen in untreated cells but a greater degree of mitochondrial fragmentation"},
      {"measurement": "differences in ATP levels after treatment", "setting": "[3]; [7]", "result": "did not reach statistical significance"},
      {"measurement": "JC-1 staining (red aggregates vs green monomer) vs untreated cells", "setting": "[6]", "result": "loss of red mitochondrial aggregates in most cells; also recorded: loss of red mitochondrial aggregates"},
      {"measurement": "JC1 staining (red aggregates vs green monomer)", "setting": "BD fibroblasts; 100 μM HC, 24 hr", "result": "an even greater loss of red JC1 mitochondrial aggregates; also recorded: a loss of red JC1 mitochondrial aggregates in the majority of cells"},
      {"measurement": "ratiometric changes in JC1 after treatment", "setting": "BD fibroblasts; [7]", "result": "did not reach statistical significance"}
    ]}
  ]
}
